From ChEMBL document CHEMBL1201862, “PubChem BioAssay data set” (2004)
Activity calls are given as the source filed them.

Columns and labels:
[1] = NIH3T3 cell viability loss – ATP luminescence, mouse fibroblasts, counter-screen, dose response (AID 2010); format: functional, cell-based;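 note: cells exposed to compound for about 90 hours before reading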
[2] = Luminescence-based counterscreen assay for KLF5 inhibitors: dose response cell-based high throughput screening assay to identify cytotoxic compounds using the IEC-6 intestinal epithelial cell line. [Related pubchem assays: 1700 (Primary screen.), 1834 (Confirmation screen.), 1858 (Summary AID.), 1905 (Counterscreen.)]; format: functional
[3] = cells; format: functional, cell-based
[4] = tested on: INS1; assay: INS-1E survival protection against cytokine death – cell-based, luminescence, retest, dose response (AID 449756); format: functional; conditions: Rattus norvegicus;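 note: cell death triggered by IL-1 beta plus TNF-alpha plus IFN-gamma mixture; protective hits raise ATP signal compared with cytokine alone wells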
[5] = tested on: Streptococcus sp. 'group A'; assay: Streptococcus pyogenes SK(-)GAS viability under kanamycin – luminescence, BacTiterGlo, confirmation, counter-screen for streptokinase expression inhibitor project, dose response (AID 1900); format: functional, organism-based
[6] = cells; format: functional, cell-based; remark: listed apart in the source
[7] = tested on: HEK293; assay: EBV LMP1 TES2 canonical NF-kB signalling blockers – cell-based, HEK293, luciferase, cherry-pick, dose response (AID 588343); format: functional; conditions: Homo sapiens
[8] = target: T1, Streptokinase A (Streptococcus pyogenes serotype M1, UniProt P10520); assay: viability-normalized secreted streptokinase activity reduction – plasminogen activation absorbance, OD405, dose response (AID 1914); format: functional, Streptococcus pyogenes M1 GAS;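 note: secreted streptokinase activity via plasminogen activation per viability signal from cell pellet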
T1 sequence (P10520 whole entry): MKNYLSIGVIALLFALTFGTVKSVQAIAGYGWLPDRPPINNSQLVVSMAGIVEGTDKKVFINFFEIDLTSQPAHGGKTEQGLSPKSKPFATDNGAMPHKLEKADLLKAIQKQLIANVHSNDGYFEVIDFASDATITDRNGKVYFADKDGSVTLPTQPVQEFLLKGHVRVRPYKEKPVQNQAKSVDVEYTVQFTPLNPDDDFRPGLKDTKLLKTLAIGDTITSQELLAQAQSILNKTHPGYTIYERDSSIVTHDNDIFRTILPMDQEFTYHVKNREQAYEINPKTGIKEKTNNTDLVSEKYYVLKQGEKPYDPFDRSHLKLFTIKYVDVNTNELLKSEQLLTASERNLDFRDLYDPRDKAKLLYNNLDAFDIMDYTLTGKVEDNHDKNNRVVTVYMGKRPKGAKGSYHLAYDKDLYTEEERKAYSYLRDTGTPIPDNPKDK

[9] = tested on: Streptococcus; assay: GAS UMAA2166 growth inhibition – luminescence, BacTiterGlo, counter-screen for streptokinase expression inhibitor project, dose response (AID 1915); format: functional, organism-based;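 note: potency for reduction of bacterial viability or growth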
[10] = Trypanosoma cruzi growth suppression in host cells – NIH3T3 host cells, beta-gal luminescence, confirmation (AID 2044); format: functional, cell-based;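 note: intracellular parasites grown in NIH/3T3 mouse fibroblasts as host cells; luminescent beta-galactosidase reporter signal from transgenic T. cruzi replicating inside host cells; inhibitors lower the luminescence signal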
[11] = A cytotoxicity screen of small molecule inhibitors of the PhoP region in Salmonella typhi identified in the primary screen. [Related pubchem assays: 1850, 1864, 1985 ]; format: functional
[12] = tested on: HEK293; assay: Fluorescence-based counterscreen for potentiators or agonists of NPY-Y2: cell-based high-throughput dose response assay to identify inhibitors of cyclic nucleotide gated ion channel (CNGC) activity. In this assay, the parental HEK293 cell line transfected with a cyclic-nucleotide gated ion channel (CNGC)-based cAMP sensor is used to measure inhibition of isoproterenol-induced CNGC activity by test compound.; format: functional; conditions: Homo sapiens
[13] = target: Neuropeptide Y receptor type 2 (Homo sapiens, UniProt P49146); assay: Fluorescence-based cell-based high-throughput dose response assay for agonists of NPY-Y2. [Related pubchem assays: 1703 (Screening assay (CNGC inhibitors).), 1359 (Screening assay (NPY-Y2 potentiators or agonists).), 1304 (Screening assay (NPY-Y1 potentiators or agonists).), 1710 (Screening assay (NPY-Y2 agonists).), 1791 (Summary AID.)]; format: functional
Sequence of Neuropeptide Y receptor type 2 (P49146 whole entry): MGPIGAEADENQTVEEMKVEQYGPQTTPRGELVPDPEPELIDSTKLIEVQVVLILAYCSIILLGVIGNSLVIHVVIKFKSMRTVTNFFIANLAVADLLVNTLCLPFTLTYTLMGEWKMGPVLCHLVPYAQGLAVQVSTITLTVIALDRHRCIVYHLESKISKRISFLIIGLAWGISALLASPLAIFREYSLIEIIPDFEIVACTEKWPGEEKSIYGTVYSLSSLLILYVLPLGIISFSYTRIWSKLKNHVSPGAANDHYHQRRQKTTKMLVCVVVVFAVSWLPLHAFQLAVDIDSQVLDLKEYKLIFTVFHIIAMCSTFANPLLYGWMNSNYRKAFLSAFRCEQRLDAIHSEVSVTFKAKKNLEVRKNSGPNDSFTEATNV

[14] = target: Neuropeptide Y receptor type 1 (Homo sapiens, UniProt P25929); assay: Fluorescence-based counterscreen for agonists of NPY-Y2: cell-based high-throughput dose response assay for agonists of NPY-Y1.; format: functional
Sequence of Neuropeptide Y receptor type 1 (P25929 whole entry): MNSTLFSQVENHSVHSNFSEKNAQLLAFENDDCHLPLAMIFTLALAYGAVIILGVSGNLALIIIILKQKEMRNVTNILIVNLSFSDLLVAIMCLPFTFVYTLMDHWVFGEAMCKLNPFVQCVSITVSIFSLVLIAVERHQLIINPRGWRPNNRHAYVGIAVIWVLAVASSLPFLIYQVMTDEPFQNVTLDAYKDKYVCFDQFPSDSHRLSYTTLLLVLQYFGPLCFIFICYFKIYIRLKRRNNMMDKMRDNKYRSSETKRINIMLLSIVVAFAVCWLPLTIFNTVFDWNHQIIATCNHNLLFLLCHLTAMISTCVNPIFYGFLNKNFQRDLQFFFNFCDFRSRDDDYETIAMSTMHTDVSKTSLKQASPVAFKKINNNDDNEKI

[15] = target: Eukaryotic translation initiation factor 4H (Homo sapiens, UniProt Q15056); assay: eIF4H binding inhibition – biochemical, uHTS, fluorescence polarization, translation initiation inhibitor project, primary screen (AID 2012)
[16] = target: Polyadenylate-binding protein 1 (Homo sapiens, UniProt P11940); assay: blockers of PABP interaction with poly(A) – biochemical, fluorescence polarization, […] (AID 2014)
Sequence of Polyadenylate-binding protein 1 (P11940 whole entry): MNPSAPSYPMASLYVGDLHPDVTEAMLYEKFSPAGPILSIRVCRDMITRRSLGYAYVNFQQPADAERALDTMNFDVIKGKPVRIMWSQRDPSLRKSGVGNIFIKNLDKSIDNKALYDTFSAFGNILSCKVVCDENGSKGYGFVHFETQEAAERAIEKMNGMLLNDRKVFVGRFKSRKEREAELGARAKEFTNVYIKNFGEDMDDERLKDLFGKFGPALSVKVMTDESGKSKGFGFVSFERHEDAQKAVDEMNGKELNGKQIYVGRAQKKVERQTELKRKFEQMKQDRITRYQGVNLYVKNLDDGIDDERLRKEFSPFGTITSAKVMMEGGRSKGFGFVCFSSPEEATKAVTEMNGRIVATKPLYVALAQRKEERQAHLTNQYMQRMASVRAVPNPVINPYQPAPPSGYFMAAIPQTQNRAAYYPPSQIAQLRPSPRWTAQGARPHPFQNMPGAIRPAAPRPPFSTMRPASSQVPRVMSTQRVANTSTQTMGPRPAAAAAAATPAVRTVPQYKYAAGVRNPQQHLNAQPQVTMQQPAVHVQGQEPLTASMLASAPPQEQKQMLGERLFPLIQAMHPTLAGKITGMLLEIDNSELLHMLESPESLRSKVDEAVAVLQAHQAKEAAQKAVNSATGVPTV

[17] = target: Mucolipin-3 (Homo sapiens, UniProt Q8TDD5); assay: Dose response cell-based high-throughput screening assay for agonists of the transient receptor potential channel ML3 (TRPML3). [Related pubchem assays: 1526, 1424, 1448 ]; format: functional
Sequence of Mucolipin-3 (Q8TDD5 whole entry): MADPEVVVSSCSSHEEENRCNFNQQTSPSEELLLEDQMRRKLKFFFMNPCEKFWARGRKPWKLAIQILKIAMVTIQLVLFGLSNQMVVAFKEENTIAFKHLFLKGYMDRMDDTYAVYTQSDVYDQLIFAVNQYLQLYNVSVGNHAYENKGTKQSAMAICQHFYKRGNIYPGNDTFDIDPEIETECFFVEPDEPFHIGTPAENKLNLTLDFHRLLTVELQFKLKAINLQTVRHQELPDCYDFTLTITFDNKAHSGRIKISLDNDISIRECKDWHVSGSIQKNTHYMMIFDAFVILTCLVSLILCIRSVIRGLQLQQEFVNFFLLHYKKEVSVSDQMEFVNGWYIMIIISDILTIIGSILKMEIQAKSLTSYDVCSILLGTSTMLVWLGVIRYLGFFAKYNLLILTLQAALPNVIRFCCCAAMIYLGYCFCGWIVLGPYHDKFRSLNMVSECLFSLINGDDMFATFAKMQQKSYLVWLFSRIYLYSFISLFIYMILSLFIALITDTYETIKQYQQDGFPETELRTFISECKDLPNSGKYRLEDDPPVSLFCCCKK

[18] = target: Ion channel NompC (Danio rerio, UniProt Q7T1G6); assay: Fluorescence counterscreen assay for TRPML3 agonists: dose response cell-based high-throughput screening assay to identify agonists of the transient receptor potential channel N1 (TRPN1). [Related pubchem assays: 1526, 1424, 1448 ]; format: functional
Sequence of Ion channel NompC (Q7T1G6 whole entry): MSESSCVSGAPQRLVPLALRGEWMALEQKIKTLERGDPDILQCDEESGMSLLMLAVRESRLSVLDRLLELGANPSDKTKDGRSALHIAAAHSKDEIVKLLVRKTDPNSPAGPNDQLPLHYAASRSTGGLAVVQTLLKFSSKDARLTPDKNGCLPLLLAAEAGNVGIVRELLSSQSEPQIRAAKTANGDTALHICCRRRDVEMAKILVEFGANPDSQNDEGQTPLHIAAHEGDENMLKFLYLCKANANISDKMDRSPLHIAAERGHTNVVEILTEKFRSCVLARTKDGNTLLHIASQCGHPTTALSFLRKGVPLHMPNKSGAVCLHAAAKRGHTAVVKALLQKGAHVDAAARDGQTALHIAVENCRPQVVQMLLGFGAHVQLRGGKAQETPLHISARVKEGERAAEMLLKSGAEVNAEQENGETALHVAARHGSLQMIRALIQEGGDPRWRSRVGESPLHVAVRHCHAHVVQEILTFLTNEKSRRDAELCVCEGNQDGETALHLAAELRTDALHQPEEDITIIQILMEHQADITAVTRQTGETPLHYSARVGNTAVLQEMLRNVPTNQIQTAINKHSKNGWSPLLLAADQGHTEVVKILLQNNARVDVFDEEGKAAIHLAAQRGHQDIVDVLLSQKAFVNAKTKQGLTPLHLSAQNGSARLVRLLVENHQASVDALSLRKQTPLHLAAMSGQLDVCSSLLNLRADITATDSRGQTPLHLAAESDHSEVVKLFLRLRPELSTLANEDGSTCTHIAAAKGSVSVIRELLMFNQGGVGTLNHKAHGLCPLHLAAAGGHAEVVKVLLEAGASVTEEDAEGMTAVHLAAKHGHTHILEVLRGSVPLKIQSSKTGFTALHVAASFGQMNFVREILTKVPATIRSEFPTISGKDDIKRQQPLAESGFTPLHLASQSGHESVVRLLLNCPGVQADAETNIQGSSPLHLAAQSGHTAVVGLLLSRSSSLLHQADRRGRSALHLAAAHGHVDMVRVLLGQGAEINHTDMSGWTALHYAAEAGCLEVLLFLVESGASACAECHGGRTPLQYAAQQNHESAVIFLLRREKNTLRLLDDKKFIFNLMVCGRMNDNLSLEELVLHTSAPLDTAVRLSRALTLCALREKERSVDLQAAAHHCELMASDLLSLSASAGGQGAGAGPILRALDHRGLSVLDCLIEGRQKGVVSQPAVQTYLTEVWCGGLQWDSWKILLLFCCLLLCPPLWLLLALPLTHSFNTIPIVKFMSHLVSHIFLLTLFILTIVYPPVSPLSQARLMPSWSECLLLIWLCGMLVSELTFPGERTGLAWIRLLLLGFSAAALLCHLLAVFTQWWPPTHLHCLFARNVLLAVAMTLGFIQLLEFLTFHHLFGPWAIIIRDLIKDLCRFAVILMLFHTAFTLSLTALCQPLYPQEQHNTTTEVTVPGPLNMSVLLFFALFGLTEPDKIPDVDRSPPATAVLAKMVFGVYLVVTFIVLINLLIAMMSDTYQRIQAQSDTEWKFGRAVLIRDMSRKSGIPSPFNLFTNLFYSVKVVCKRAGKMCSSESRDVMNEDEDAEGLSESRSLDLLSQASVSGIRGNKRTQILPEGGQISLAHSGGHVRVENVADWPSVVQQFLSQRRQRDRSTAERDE

In the case of `Cc1ccc2[nH]c(C(=O)N/N=C/c3ccccc3O)c(C)c2c1`, the EC50 [1] is reported as 6.55 µM (active), the IC50 [2] is reported as 3.15 µM (active) and the EC50 [3] is reported as 6.86 µM (active). The AC50 [4] was 0.507 µM (active), the EC50 [5] was 1.63 µM (active) and the EC50 [6] was > 350 µM (not active). The AC50 [7] was 7.07 µM (active), the EC50 [8] was > 150 µM (not active) and the EC50 [9] was 3.86 µM (active). For the same compound, the EC50 [10] was 0.564 µM (active).
With `CCc1nc(C)ccc1OCC(=O)N(CC)CC` the EC50 [11] was > 50 µM (active).
For `CC(Nc1ccccc1)c1cccnc1` (stereo unspecified), the EC50 [12] was > 35.4 µM (not active), the EC50 [13] was > 35.4 µM (not active) and the EC50 [14] was > 35.4 µM (not active).
With `CC(C)c1nnc(NC(=O)CCC(=O)Nc2ccc3c[nH]nc3c2)s1` the EC50 [12] was > 35.4 µM (not active), the EC50 [13] was > 35.4 µM (not active) and the EC50 [14] was > 35.4 µM (not active).
For `C[N+]1=C2c3ccccc3N=CN2CC1`, the IC50 [15] was > 100 µM (inactive) and the IC50 [16] was 4.47 µM (active).
In the case of `O=C(C1Cc2ccccc2CN1S(=O)(=O)c1ccc(F)cc1)N1CCCCC1` (stereo unspecified), the EC50 [17] is reported as 2.06 µM (active) and the EC50 [18] is reported as 13.3 µM (not active).
